According to patent US5756510A, “Benzamide analogs useful as PARP (ADP-ribosyltransferase, ADPRT) DNA repair enzyme inhibitors” (Newcastle University Ventures Limited, priority 1994, dated 1998):
Where two headings read alike, the source gives them in different places. Blank lines part the entries; values can stand above or below the molecule they belong to.

What was measured:
L1210 cells [1] = assay: repair of potentially lethal damage (PLD) after gamma ray irradiation; type: cell-based, murine; conditions: 8 Gray gamma ray; 10 mM 3AB or 200 μM NU1025
Procedure: Repair of potentially lethal damage (PLD) occurs when cells are held in stationary-phase following initiation of PLD prior to allowing cell division to take place. In further typical experiments, L1210 cells were allowed to repair gamma ray PLD in the presence or absence of 3AB or NU1025 as follows. L1210 cells were maintained in culture until they had attained stationary phase (>10^6 cells/ml). They were diluted to […] in conditioned medium from stationary-phase cultures to prevent further cell division. Replicate 2 ml samples of cells in plastic bijoux were held on ice prior to and immediately following 8 Gray gamma ray irradiation. 1 ml of 3x final concentration of compounds 3AB or NU1025 made up in conditioned medium from stationary cultures was added (to give final concentrations of 10^6 cells/ml in 1% DMSO ±10 mM 3AB or 200 μM NU1025) and the cells were incubated at 37° C. for 0, 2 or 4 hours prior to resuspending in drug-free medium and seeding for colony formation. Unirradiated stationary phase cultures incubated at 37° C. for 0, 2 or 4 hours with 1% DMSO ±10 mM 3AB or 200 μM NU1025 were used as appropriate controls for determining relative cell survival. In the absence of PARP inhibitor cell survival increased with time allowed for PLD repair to take place. […]

[2] = test system: DNA strand breaks in L1210 cells; assay: DNA strand break assay (alkaline elution); type: cell-based, murine; conditions: for concentration above which strand breakage with TM increases significantly: 150 μM TM, 1 hour; for effect on DNA strand break levels, compound alone: 24 hour incubation
Procedure: (§1) Again using cultures of the murine leukaemia L1210 cell line, growth inhibition experiments were carried out to assess the cytostatic effects of the compounds and clonogenic survival assays were performed to assess cytotoxicity, especially in relation to use of the compounds in conjunction with DNA damaging cytotoxic agents such as cytotoxic antitumour drugs or high energy radiation.
All the compounds were tested for their ability to produce strand breaks when used alone.

in vitro = conditions: mouse, l1210 cells
Procedure: as §1

L1210 cells [3] = assay: clonogenic survival assay with temozolomide (TM); conditions: for DEF10 (TM): 16 hours, ± S.E.
Procedure: as §1
After 7-10 days colonies were stained with 0.5 mg/ml MTT and counted by eye on a gridded light box. Survival curves were plotted and typical DEF10 values obtained are hereinafter given in Table II (DEF10 being defined as the ratio of the concentration of TM that reduces survival to 10% divided by the concentration of TM that reduces survival to 10% in the presence of a fixed concentration of PARP inhibitor). Each DEF10 value in Table II represents the average ratio±S.E. (standard error) derived from the averaged 10% survival for TM alone (675±31 μM from 22 independent survival curves) divided by individual 10% survival values from at least 3 independent survival curves performed in the presence of a fixed concentration of inhibitor.
For NU1025 maximal potentiation of cytotoxicity was obtained by a concentration in the range of 50-100 μM, and was significant at doses as low as 10 μM.

L1210 cells [4] = assay: growth inhibition assay, alone or with temozolomide; type: cell-based, murine; conditions: Mus musculus, L1210, 48 h
Procedure: as §1
At this time one set of replicates would be counted using a Coulter counter (N0), and 48 hours later the remaining samples would be counted (N1). The percentage (%) growth inhibition of drug-treated samples could then be estimated. In drug combination experiments, where evidence of synergistic effects on cell growth or clonogenicity was being sought, a single, fixed concentration of a cytotoxic drug sample, e.g. temozolomide, would be taken as the control value.

PARP = biological target: T1, PARP (Mus musculus, UniProt P11103); assay: PARP inhibition assay ([32P]-NAD incorporation into TCA-precipitated poly(ADP-ribose) in permeabilised L1210 cells, oligonucleotide activated); type: biochemical, L1210 murine leukaemia cells
T1 construct: endogenous in cells; host or cells: L1210 murine leukaemia cells, permeabilised by hypotonic buffer and cold shock
Source text: In principle, the PARP assay used relies upon activating endogenous PARP (as hereinafter described) in cells containing exogenous [^32 P]-NAD^+ introduced therein by suspending the cells in a solution of [^32 P]-NAD^+ to which they have been rendered permeable in an initial pretreatment step. The poly(ADP-ribose) which is then synthesised by the enzyme can be precipitated by trichloracetic acid (TCA) and the amount of radio-labelled ^32 p incorporated therein measured, e.g. using a scintillation counter, to give a measure of the activity of the PARP under the particular conditions of the experiment. By repeating the experiment following the same procedure, and under the same conditions, in the presence of each compound to be tested the reduction in enzyme activity, representative of the inhibitory effect of the test compound, can then be ascertained from the reduction, if any, of the amount of [^32 P] measured in the TCA precipitated poly(ADP-ribose).
Thus, with a range of different compounds a set of comparative values for inhibitory activity can be obtained.
In practice, L1210 murine leukaemia cells were used as the source of the PARP enzyme after being rendered permeable to exogenous [^32 P]NAD by exposure to hypotonic buffer and cold shock. […] This oligonucleotide sequence snaps back on itself to form a double-stranded molecule with a single blunt end and provides an effective substrate for activation of PARP.
The experimental protocol adopted, in which a synthetic oligonucleotide as mentioned above is introduced as a specific activator of PARP, discriminates between PARP and other mono-ADP-ribosyltransferases in the cells.
The oligonucleotide having the palindromic sequence […], synthesised by conventional means, was vacuum dried and stored as pellets in a freezer. Before use, it was made up to 200 μg/ml in 10 mM Tris/HCl, pH 7.8, with each pellet being dissolved completely in […] of buffer. The solution was then heated to 60° C. in a water bath for 15 minutes, and allowed to cool slowly to ensure correct reannealing. After adding 9.5 ml of buffer, the concentration was checked by measuring the optical density of a diluted sample at 260 nm. The main solution was then diluted to a concentration of 200 μg/ml and stored in 500 μl aliquots in a freezer, ready for use.
The L1210 cells used as the source of the PARP enzyme were maintained as a suspension culture in RPMI medium+10% foetal bovine serum+glutamine and antibiotics (penicillin and streptomycin). HEPES and sodium bicarbonate were also added, and the cells were seeded in 100 ml of medium such that there would be a concentration of approximately 8×10^5 /ml at the time of carrying out an assay.
(§2) The solubility of the compound was then checked by adding a quantity of the DMSO solution to a quantity of the isotonic buffer, in the required final proportions that were to be used in carrying out the assay, and after an interval the solution was examined under a microscope for any signs of crystals forming.
A desired quantity of the cells, ascertained by counting with a haemocytometer, was then centrifuged (1500 rpm in a "Europa" model 24M centrifuge for 5 minutes), the supernatant removed, and the pellets obtained were resuspended in 20 ml Dul A at 4° C. before centrifuging again at 1500 rpm and 4° C. After again removing the supernatant, the cells were resuspended at a concentration of 3×10^7 cells/ml in ice cold hypotonic buffer and left for 30 minutes on ice. Nine volumes were then added of ice cold isotonic buffer, and the cells, now rendered permeable to exogenous NAD^+, were then used within the next hour for carrying out an assay.

[5] = solubility check of test compound in assay buffer (DMSO solution added to isotonic buffer, microscope); type: physicochemical
Source text: as §2, with “The compounds being tested were generally made up as a concentrated solution in DMSO (Dimethyl sulphoxide). The” for “The”

L1210 cells [6] = assay: clonogenic survival assay, gamma ray irradiation; type: cell-based, murine; conditions: 200 μM
Procedure: In other clonogenic survival assays gamma ray irradiation was used to damage the cells. Typically, L1210 cells (3 ml, 4×10^3 /ml in plastic bijoux bottles) were irradiated at 4° C. with varying doses of gamma rays in the presence or absence of 10 mM 3AB or 200 μM NU1057 and a final concentration of 2% DMSO. The cells were then incubated at 37° C. for 2 hours in the continued presence or absence of PARP inhibitor prior to seeding for colony formation.

[7] = half life of temozolomide in culture; type: physicochemical
[8] = read-out: IC50 INHIBITOR + 100 μM TM (growth inhibition)
[9] = read-out: IC50 INHIBITOR ALONE (growth inhibition)
[10] = 10 μM, read-out: % Inhibition (PARP)
[11] = 30 μM, read-out: % Inhibition (PARP)

T1 sequence (P11103 whole entry): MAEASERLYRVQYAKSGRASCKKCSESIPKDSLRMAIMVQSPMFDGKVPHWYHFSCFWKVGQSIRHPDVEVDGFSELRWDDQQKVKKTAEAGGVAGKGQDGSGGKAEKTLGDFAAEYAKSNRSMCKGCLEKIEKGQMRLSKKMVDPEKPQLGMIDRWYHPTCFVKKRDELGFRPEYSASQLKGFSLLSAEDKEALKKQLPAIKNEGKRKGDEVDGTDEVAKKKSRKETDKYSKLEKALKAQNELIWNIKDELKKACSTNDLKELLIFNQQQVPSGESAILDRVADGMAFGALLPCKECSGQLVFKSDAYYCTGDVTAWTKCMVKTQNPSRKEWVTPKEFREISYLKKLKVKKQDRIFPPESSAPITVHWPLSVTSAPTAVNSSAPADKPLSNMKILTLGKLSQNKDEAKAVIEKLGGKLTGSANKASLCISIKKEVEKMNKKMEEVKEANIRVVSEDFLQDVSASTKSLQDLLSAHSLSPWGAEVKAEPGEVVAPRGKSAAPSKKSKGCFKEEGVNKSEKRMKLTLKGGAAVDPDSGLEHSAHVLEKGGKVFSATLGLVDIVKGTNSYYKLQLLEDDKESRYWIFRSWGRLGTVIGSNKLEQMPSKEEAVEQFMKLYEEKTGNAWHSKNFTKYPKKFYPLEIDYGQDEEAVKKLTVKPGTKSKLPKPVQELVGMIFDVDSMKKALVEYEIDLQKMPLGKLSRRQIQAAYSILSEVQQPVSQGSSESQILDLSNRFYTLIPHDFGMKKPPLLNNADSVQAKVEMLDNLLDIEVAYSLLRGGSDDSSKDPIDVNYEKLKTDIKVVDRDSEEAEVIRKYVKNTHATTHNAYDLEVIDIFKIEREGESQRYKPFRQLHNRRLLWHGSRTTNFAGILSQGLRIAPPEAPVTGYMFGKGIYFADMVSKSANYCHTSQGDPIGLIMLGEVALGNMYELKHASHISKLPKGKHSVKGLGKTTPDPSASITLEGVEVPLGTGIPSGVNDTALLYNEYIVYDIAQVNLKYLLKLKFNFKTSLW

SMILES: NC(=O)c1cccc(N)c1 [3-aminobenzamide]
- effect on PLD repair in words (L1210 cells [1]): blocked this repair
- concentration above which strand breakage with TM increases significantly [2]: > 5 mM
- effect on DNA strand break levels, compound alone ([2]; 20 mM): no significant effect on DNA strand break levels
- CC50 at 24 h (in vitro): 14000 ± 1000 µM
- DEF10 (TM) (L1210 cells [3]; 1 mM inhibitor): 2.4 ± 0.3
- DEF10 (TM) (L1210 cells [3]; 5 mM inhibitor): 4.1 ± 0.4
- DEF10 (TM) (L1210 cells [3]; 5 mM inhibitor, listed as 3AB): about 4
- IC50 (L1210 cells [4]; [8]): 2500 ± 100 µM
- IC50 (L1210 cells [4]; [9]): 6700 ± 200 µM
- inhibition at 10 µM (PARP; [10]): 36%
- inhibition at 30 µM (PARP; [11]): 63%
- inhibition at 100 µM (PARP; 100 μM, read-out: % Inhibition (PARP)): 79%

SMILES: NC(=O)c1ccccc1 [BENZAMIDE, benzamide]
- concentration above which strand breakage with TM increases significantly [2]: above 3 mM
- effect on DNA strand break levels, compound alone ([2]; 20 mM): no significant effect on DNA strand break levels
- CC50 at 24 h (in vitro): 6000 ± 1500 µM
- DEF10 (TM) (L1210 cells [3]; 1 mM inhibitor): 4.0 ± 0.7
- DEF10 (TM) (L1210 cells [3]; 3 mM inhibitor): 6.9 ± 0.2
- IC50 (L1210 cells [4]; [8]): 840 ± 120 µM
- IC50 (L1210 cells [4]; [9]): 2500 ± 300 µM

SMILES: NC(=O)c1cccc(OCc2ccc(Br)cc2)c1 [NU1014, 3-(4-Bromobenzyloxy)benzamide]
- insolubility at assay concentration ([5]; 100 μM): insol.
- inhibition at 10 µM (PARP; [10]): 23%
- inhibition at 30 µM (PARP; [11]): 36%

SMILES: NC(=O)c1cccc(OCc2ccc(F)cc2)c1 [NU1015, 3-(4-Fluorobenzyloxy)benzamide]
- insolubility at assay concentration ([5]; 100 μM): insol.
- inhibition at 10 µM (PARP; read-out: % Inhibition (PARP), 10 μM): 20%
- inhibition at 30 µM (PARP; read-out: % Inhibition (PARP), 30 μM): 52%

SMILES: NC(=O)c1cccc(OCc2cccc([N+](=O)[O-])c2)c1 [NU1017, 3-(3-Nitrobenzyloxy)benzamide]
- insolubility at assay concentration ([5]; 100 μM): insol.
- inhibition at 10 µM (PARP; [10]): 21%
- inhibition at 30 µM (PARP; [11]): 40%

SMILES: Cc1nc2c(O)cccc2c(=O)[nH]1 [NU1025, 8-Hydroxy-2-methylquinazolin-4-[3H]-one]
- effect on PLD repair in words (L1210 cells [1]): blocked this repair
- effect on DNA strand break levels, compound alone ([2]; 1 mM): no significant effect on DNA strand break levels
- CC50 at 24 h (in vitro): 1600 ± 100 µM
- DEF10 (TM) (L1210 cells [3]; 10 μM inhibitor): 2.0 ± 0.2
- DEF10 (TM) (L1210 cells [3]; 100 μM inhibitor): 5.1 ± 0.7
- IC50 (L1210 cells [4]; [8]): 40 µM
- IC50 (L1210 cells [4]; [9]): 410 µM

SMILES: Cn1nnc2c(C(N)=O)ncn2c1=O [TM, temozolomide]
- half-life [7]: ~40 min
- minimal effective concentration ([2]; Mus musculus, L1210, 1 h, read-out: lowest TM level with detectable changes in DNA strand break levels): 150 µM
- rate of elution (DNA strand breakage) in words ([2]; TM, 1 hour treatment): concentration-dependent increase in the rate of elution
- IC50 (L1210 cells [3]; Mus musculus, L1210, 16 h, read-out: LD50 of TM alone): 251 ± 13 µM
- IC90 (L1210 cells [3]; Mus musculus, L1210, 16 h, read-out: concentration of TM alone that reduces survival to 10%): 675 ± 31 µM
- cytotoxicity at 150 µM (L1210 cells [3]; Mus musculus, L1210, read-out: reduction of survival): ~30%
- IC50 (L1210 cells [4]; read-out: IC50 of TM alone (inhibition of cell growth)): 361 ± 25 µM

Further lines, with some results ahead:

- insolubility at assay concentration ([5]; 30 μM): insol.
- insolubility at assay concentration ([5]; 100 μM): insol.
- inhibition at 10 µM (PARP; [10]): 30%
SMILES: NC(=O)c1cccc(OCCCCCCCCn2cnc3c(Cl)ncnc32)c1 [NU1027, 3-[8-(6-chloropurin-9-yl)octyloxy]benzamide]

- insolubility at assay concentration ([5]; 30 μM): insol.
- insolubility at assay concentration ([5]; 100 μM): insol.
- inhibition at 10 µM (PARP; [10]): 33%
SMILES: N#Cc1ccc(COc2cccc(C(N)=O)c2)cc1 [NU1037, 3-(4-cyanobenzyloxy)benzamide]

- insolubility at assay concentration ([5]; 100 μM): insol.
- inhibition at 10 µM (PARP; [10]): 15%
- inhibition at 30 µM (PARP; [11]): 39%
SMILES: CCCCCCOc1cccc(C(N)=O)c1 [NU1043, 3-hexyloxybenzamide]

- insolubility at assay concentration ([5]; 30 μM): insol.
- insolubility at assay concentration ([5]; 100 μM): insol.
- inhibition at 10 µM (PARP; [10]): 26%
SMILES: CCCCCCCOc1cccc(C(N)=O)c1 [NU1044, 3-heptyloxybenzamide]

- insolubility at assay concentration ([5]; 30 μM): insol.
- insolubility at assay concentration ([5]; 100 μM): insol.
- inhibition at 10 µM (PARP; [10]): 23%
SMILES: NC(=O)c1cccc(OC/C=C/c2ccccc2)c1 [NU1050, 3-(Cinnamyloxy)benzamide]

- IC50 (PARP): 0.23 µM
- PARP inhibitory activity in words (PARP): potent PARP inhibitors
- inhibition at 10 µM (PARP; [10]): 92%
SMILES: O=c1[nH]c(-c2ccc([N+](=O)[O-])cc2)nc2c(O)cccc12 [NU1057, 8-Hydroxy-2-(4-nitrophenyl)quinazolin-4-one]
- potentiation of gamma ray cytotoxicity in words (L1210 cells [6]): significant potentiation of gamma ray cytotoxicity
- DEF10 (gamma ray cytotoxicity) (L1210 cells [6]; 2% DMSO, 2 hours at 37° C.): 1.1
